Laboratory results: article PMC12045974, “T cell toxicity induced by tigecycline binding to the mitochondrial ribosome” (Nature Communications, 2025)
“And” between values parts separate entries of the source, which are not always exact repeats. Identical values can stand only once.

How the values were obtained:
[1] = system: 55S mitochondrial ribosomes (mitoribosomes) from Jurkat T cells; test: Single-particle cryo-EM of mitoribosome-tigecycline complex; type: binding, human; conditions: 30 µM
Method: Jurkat T cells were grown in RPM1-1640 medium ( + 10% FBS, 2.05 mM L-glutamine (Sigma), and 55 μM 2-ME (Gibco)) in a vented flask shaking at 120 rpm at 37 °C under 5% CO2. The culture was scaled up by splitting at a cell density of 1.6 × 10^6 cells/ml. A final volume of 1.5-liter cells at a density of 1 × 10^6 cells/ml was harvested by centrifugation at 1000 x g for 10 min at 4 °C. After being washed with cold PBS buffer, the cell pellet was resuspended in the cold hypotonic MSE buffer (with 0.6 M mannitol, 10 mM Tris–HCl pH 7.4, 1 mM EDTA, 0.1% BSA), and ruptured on ice by a semi-automatic homogenizer (Schuett-biotech). The lysate was clarified by centrifugation at 400 x g and 4 °C for 10 min. The pellet was resuspended and subsequently homogenized. After 3 cycles of homogenization-centrifugation, the cell lysates were combined and the mitochondria were pelleted by additional centrifugation at 11,000 x g and 4 °C for 10 min. […]
The purified mitochondria were thawed and lysed by incubating at 4 °C for 30 min in the lysis buffer (25 mM HEPES–KOH pH 7.5, 20 mM Mg(OAc)2, 50 mM KCl, 2% (vol/vol) Triton X-100, 2 mM Dithiothreitol (DTT), 1× cOmplete EDTA-free protease inhibitor cocktail (Roche), 40 U/μl RNase inhibitor (Invitrogen)). […] The concentration of the purified monosomes was quantified by nanodrop. […]

[2] = system: CD4+ and CD8+ T cells; test: Mitochondrial mass by MitoTracker Green staining; type: cell-based, human; conditions: for mitochondrial mass (MitoTracker Green): 10 μM, after 24 h or 7 days of treatment
Method: After thawing frozen PBMCs, cells were washed with RPMI complemented with 10% FBS, 2.05 mM L-glutamine (Sigma), and 55 μM 2-ME (Gibco) and rested at 37 °C (5% CO2) for 30 min. 250,000 cells per well were seeded in 96-well U-bottom plates with/without Human T-Activator CD3/CD28 beads (Invitrogen) at a 1:1 ratio and 10 ng/ml IL-2 (Proteintech) in RPMI-1640 medium mentioned above. At the same time, antibiotics were added. For the short-term activation assay, cells were harvested 18 h post-stimulation and stained with Aqua fixable live/dead dye (Invitrogen) and surface markers. For the proliferation assays, cells were stained with CFSE (eBioscience) or Cell Trace Violet (ThermoFisher Scientific) dyes before seeding and stimulation, according to the manufacturer’s recommendations. For TCR priming experiments, tigecycline was added at 0, 24 or 72 h post-activation. For mitochondrial mass measuring, cells were stained with Mitotracker Green Fm Dye (Thermo Fisher Scientific) after incubation with Tigecycline. After incubation for 6 days with a half medium (complete, with antibiotics and IL-2) change after 3 days, cells were harvested via centrifugation, and stained with live/dead dye and surface markers for analysis by flow cytometry. The Foxp3/Transcription Factor Staining Buffer Set (Invitrogen) was used to fix cells according to the manufacturer’s instructions. The FACS gating strategy is shown in Supplementary Fig. 2D. Flow cytometry was carried out on a BD Celesta (BD Biosciences) and analyzed in FlowJo (TreeStar) software.

Compound: CN(C)c1cc(NC(=O)CNC(C)(C)C)c(O)c2c1C[C@H]1C[C@H]3[C@H](N(C)C)C(O)=C(C(N)=O)C(=O)[C@@]3(O)C(O)=C1C2=O [Tigecycline, tigecycline]
- occupancy on the mitoribosome ([1]; mtSSU and mtLSU site-1, P-site-only class): exceeding 80%
- binding sites on the mitoribosome ([1]; one on the mtSSU, two on the mtLSU): three densities corresponding to tigecycline molecules
- mitochondrial mass (MitoTracker Green) [2]: no significant changes in mitochondrial mass
- mitochondrial mass (MitoTracker Green) ([2]; listed as tigecyline): comparable mitochondrial mass
- mitochondrial mass relative to Unstim (=1), sheet sFig-1E+F ([2]; 24H, CD4, Stim-10µM, per PBMC donor): 1.522 and 1.33 and 0.8198
- mitochondrial mass relative to Unstim (=1), sheet sFig-1E+F ([2]; 24H, CD4, Unstim-10µM, per PBMC donor): 1.004 and 0.6673 and 1.041
- mitochondrial mass relative to Unstim (=1), sheet sFig-1E+F ([2]; 24H, CD8, Unstim-10µM, per PBMC donor): 0.5804 and 1.017 and 1.063
- mitochondrial mass relative to Unstim (=1), sheet sFig-1E+F ([2]; 7 days, CD4, STI 24H, per PBMC donor): 2.7235 and 3.361 and 2.725
- mitochondrial mass relative to Unstim (=1), sheet sFig-1E+F ([2]; 7 days, CD4, STI 72H, per PBMC donor): 2.708 and 3.517 and 2.769
- mitochondrial mass relative to Unstim (=1), sheet sFig-1E+F ([2]; 7 days, CD4, Stim-10µM, per PBMC donor): 2.414 and 2.323 and 2.6393
- mitochondrial mass relative to NO STI (=1), sheet sFig-1E+F ([2]; 7 days, CD8, STI-10µM, per PBMC donor): 1.791 and 3.1924 and 2.433
